Measurements: patent publication US20040009485A1, “Cellular arrays for the identification of altered gene expression” (priority 2002, published 2004)

System: Luxarray 0.5 reporter clones
Test: Luxarray 0.5 solid phase perturbation with nalidixic acid (luminometer)
Format: cell-based, E. coli
Conditions: 1 and 5 μg/ml plates, 2 hrs
Method: A solid phase assay system consisting of reporter clones growing in the presence or absence of a perturbation, biological, environmental was developed. This was accomplished by growing the reporters on a porous membrane (Biodyne B, Nunc) seated on top of solid growth media in a culture dish (OmniTray, Nunc). Luminescence was measured either by a luminometer or by creating an image of the entire culture and quantitating the pixel density. Effects of perturbants can be determined by comparison of luminescence generated by treated and control cultures. Growth on the surface of the membrane allows the reporter assay to be moved between conditions as required. […]
Membranes were sterilized with UV illumination for 10 min then placed in contact with prewarmed media in a culture dish. […] Luminescence data was collected for each spot for 40 cycles of 20 min duration (overnight). […] Without exception, the signal strength measured corroborated the data obtained in liquid culture. […]
Next the system was evaluated for its ability to determine responses to perturbation, in this case, DNA damage caused by nalidixic acid Parental clone and two nonresponding reporters, osmY, and lacZYA, and three DNA damage responsive reporters, uvrA, recA, dinG, were chosen. […] The membranes were moved to new, pre-warmed plates containing varying amounts of nalidixic acid and light readings collected with an ML3000 luminometer. […]

CCn1cc(C(=O)O)c(=O)c2ccc(C)nc21 [Nalidixic acid, nalidixic acid]
bioluminescence on solid medium (SOS regulon reporters uvrA, recA, dinG): increased bioluminescence
bioluminescence on solid medium (non-DNA damage responsive fusions osmY and lacZYA): unaffected
